Test results: patent US4243678A, “Acylhydrocarbylaminoalkanoic acids, compositions and uses” (Byk Gulden Lomberg Chemische Fabrik GmbH, priority 1977, dated 1981)
Like-named read-outs stand apart in the source and are kept apart here.

Assays:
[1] = Influence on pancreatic secretion of the narcotized rat; format: in vivo, rat (male Sprague-Dawley); settings: in vivo, LD50 mouse i.p. / ED50 rat i.d.
Excerpt: (§1) Male Sprague-Dawley rats (body weight from 250 to 300 g) are narcotized with 1.2 g/kg urethane i.m. Then the abdominal cavity is opened medially, the bile duct is ligatured shortly above the place where it leads into the duodenum and also near to the hepatic duct, and both sections are catheterized towards the liver.
(§2) As in the rat all the pancreatic ducts lead out into the central section of the bile duct; it is possible in this way to discharge the pancreatic secretion separately from the distal (ligatured) section and the bile separately from the proximal section of the bile duct.
(§3) The quantities of pancreatic juice and bile juice obtained are measured at intervals of 30 minutes over a period from 2 hours before to 3 hours after the intraduodenal (V. jugularis externa) administration of the compounds to be tested (quantity of liquid administered 5 ml/kg).
(§4) The body temperature of the animals is maintained at 36° to 38° C. by means of electric blankets and radiation; the temperature is monitored rectally.
(§5) The liquid volumes of the 30-minute fractions after the administration of the substance are related in each case to the quantity of bile or pancreatic juice secreted prior to the application of the substance (=100%, mean of the last two measurements). The maximum percentage increase in the pancreatic or bile secretion is represented in dependence upon dose, and from this the ED50 is determined by interpolation.

pancreatic secretion = experiment: as above; format: in vivo, rat (male Sprague-Dawley); settings: 0.5 h
Excerpt: as §1, §2, §3, §4, §5

[2] = Determination of toxicity (lethal action on the mouse after intraperitoneal application); format: in vivo; settings: in vivo, ip
Description: The toxicity investigations are carried out on female NMRI mice (body weight 22 to 26 g). The animals (5 animals per dose) are given food and water ad lib. Different doses of the substances are administered intraperitoneally. The duration of observation is 14 days. The LD50, i.e. the dose at which 50% of the animals die, is determined graphically from the dose/effect curve.

[3] = Antihepatotoxic effect: duration of hexobarbital sleep of the rat after liver damage by CCl4; settings: rat, in vivo
Description: (§6) The compounds to be tested are administered 1 hour prior to the administration of CCl4 orally in a liquid volume of 10 ml/kg.
(§7) The antihepatotoxic effect of the compounds to be tested (sodium salts in aqueous solution) is determined by the reduction of the prolongation of sleeping period caused by the CCl4 liver cell damage in the groups treated, as compared with the prolongation of the sleeping period of the CCl4 control group (=100%). […]

liver damage by CCl4 = experiment: as above; settings: Rattus norvegicus, po; for ED25: read-out: ED25 antihepatotoxic effect (shortens hexobarbital narcosis by 25%)
Description: as §6, §7

[4] = system: glucose formation from lactate and pyruvate in isolated perfused liver; experiment: Inhibition of the formation of glucose from lactate and pyruvate in the isolated perfused rat liver; set-up: species or system rat (male Sprague-Dawley); settings: for Glucose formation, % change: isolated perfused liver of fasting rats; for ED50 inhibition of formation of glucose from lactate and pyruvate: from 4 concentrations, 0.02 to 1.00 mmol/liter
Description: For this purpose young male Sprague-Dawley rats (160 to 200 g) are used. The rats are kept in cages of up to 5 animals in a temperature-controlled room (23° C.) with a fixed day/night rhythm (12/12 hours).
Food is withheld from the animals for from 20 to 22 hours prior to the operation. They are allowed to take water ad lib. The operation and the perfusion of the liver are carried out using the technique of R. Scholz et al. [Eur. J. Biochem. 38 (1973) 64 to 72]. The perfusion liquid used is Krebs-Henseleit bicarbonate buffer (pH 7.4), which is saturated with an oxygen/carbon dioxide mixture (95/5) and contains 1.6 mmol/liter of L-lactate and 0.2 mmol/liter of pyruvate. The perfusion liquid is pumped into the liver via a cannula inserted into the portal vein. The effluent perfusion liquid is collected via a cannula inserted into the Vena cava. The liver is perfused for about 2 hours. The test compounds are infused for 16 minutes each from the 32nd to the […] after the perfusion in increasing concentrations (0.02 to 1.00 mmol/liter).
Samples of the effluent perfusion liquid are collected at one-minute intervals and analyzed for glucose, lactate and pyruvate (using standard enzymatic methods). The percentages shown in Table VIII relate to the condition occurring before and after the administration of the compounds, the changes caused solely by lactate and pyruvate being set as being equal to 100%.

[5] = Table I, read-out: TQ (LD50/ED50), pancreatic secretion
[6] = Rattus norvegicus, read-out: ED50 pancreatic secretion (dose which brings about an increase in the pancreatic secretion by a maximum of 50%)
[7] = TQ (LD50/ED50), antihepatotoxic effect, LD50 mouse i.p. / ED50 rat p.o., Table III
[8] = read-out: ED50 antihepatotoxic effect (dose which shortens the hexobarbital narcosis by 50%)
[9] = 0.2 mmole/liter in the perfusate, Table VIII
[10] = TQ LD50/ED25, antihepatotoxic effect, LD50 mouse i.p. / ED25 rat p.o., Table V
[11] = read-out: ED50 antihepatotoxic effect (shortens hexobarbital narcosis by 50%)
[12] = Table VII, read-out: TQ [LD50/ED50], pancreatic secretion
[13] = narcotized rat, i.d., liquid volume, 30 min fraction, Table VII, read-out: ED50 pancreatic secretion (dose which brings about an increase in pancreatic secretion of a maximum of 50%)
[14] = Table X, read-out: TQ LD50/ED50, pancreatic secretion
[15] = narcotized rat, i.d., liquid volume, 30 minute fraction, Table X, read-out: ED50 pancreatic secretion (dose which brings about an increase in pancreatic secretion by a maximum of 50%)
[16] = TQ LD50/ED25, antihepatotoxic effect, LD50 mouse i.p. / ED25 rat p.o., Table XI
[17] = TQ LD50/ED50, antihepatotoxic effect, LD50 mouse i.p. / ED50 rat p.o., Table XI

Structure (SMILES): O=C(O)CCCN(C(=O)c1ccc(Cl)cc1)C12CC3CC(CC(C3)C1)C2 [Serial No. 6, N-(p-chloro)benzoyl-4-(1-adamantyl)aminobutyric acid]
- selectivity ratio [1, 5]: 200
- ED50 (pancreatic secretion; [6]): 1 mg/kg
- LD50 at 336 h ([2]; mouse, Table I): 200 mg/kg

Structure (SMILES): CC(C)(C)CC(C)(C)N(CCCC(=O)O)C(=O)c1ccc(Cl)cc1 [Serial No. 7, N-(p-chloro)benzoyl-4-[(1,1,3,3-tetramethylbutyl)amino]butyric acid]
- selectivity ratio [1, 5]: 110
- ED50 (pancreatic secretion; [6]): 2 mg/kg
- LD50 at 336 h ([2]; mouse, Table I): 220 mg/kg

Structure (SMILES): C#CC1(N(CCCC(=O)O)C(C)=O)CCCCC1 [Serial No. 8, N-acetyl-4-[(1-ethynylcyclohexyl-1)-amino]butyric acid]
- selectivity ratio [1, 5]: > 100
- ED50 (pancreatic secretion; [6]): 10 mg/kg
- LD50 at 336 h ([2]; mouse, Table I): > 1000 mg/kg

Structure (SMILES): O=C(O)CCCN(C(=O)c1ccc(Cl)cc1)C(c1ccccc1)c1ccccc1 [Serial No. 12, N-(p-chloro)benzoyl-4-benzhydrylaminobutyric acid]
- selectivity ratio [1, 5]: ~2500
- ED50 (pancreatic secretion; [6]): ~0.1 mg/kg
- LD50 at 336 h ([2]; mouse, Table I): 250 mg/kg
- selectivity ratio [3, 7]: 25
- ED50 (liver damage by CCl4; [8]): 10 mg/kg

Structure (SMILES): CC(c1ccccc1)N(CCCCCC(=O)O)C(=O)c1ccc(Cl)cc1 (centres unmarked) [Serial No. 13, N-(p-chloro)benzoyl-6-(1-phenylethylamino)caproic acid]
- selectivity ratio [1, 5]: 110
- ED50 (pancreatic secretion; [6]): 2 mg/kg
- LD50 at 336 h ([2]; mouse, Table I): 220 mg/kg

Structure (SMILES): O=C(O)CCCN(Cc1ccccc1)C(=O)c1ccc(Cl)cc1 [Serial No. 15, N-(p-chloro)benzoyl-4-benzylaminobutyric acid]
- selectivity ratio [1, 5]: 233
- ED50 (pancreatic secretion; [6]): 1.5 mg/kg
- LD50 at 336 h ([2]; mouse, Table I): 350 mg/kg

Structure (SMILES): O=C(O)CCCN(C(=O)c1ccc(Cl)cc1)C1CCCCCCC1 [Serial No. 18, N-(p-chloro)benzoyl-4-cyclooctylaminobutyric acid]
- selectivity ratio [1, 5]: 60
- ED50 (pancreatic secretion; [6]): 2.5 mg/kg
- LD50 at 336 h ([2]; mouse, Table I): 150 mg/kg
- selectivity ratio [3, 7]: 18.8
- ED50 (liver damage by CCl4; [8]): 8 mg/kg

Structure (SMILES): O=C(O)CCCCN(C(=O)c1ccc(Cl)cc1)c1ccccc1-c1ccccc1 [Serial No. 28, 5-[p-chloro-N-(biphenyl-2-yl)benzamido]valeric acid]
- Glucose formation, % change [4, 9]: -89%
- ED50 inhibition of formation of glucose from lactate and pyruvate ([4]; Table VIII): 25 µg/mL
- LD50 at 336 h ([2]; mouse i.p., Table V): 140 mg/kg
- selectivity ratio [3, 10]: 46.7
- selectivity ratio ([3]; TQ LD50/ED50, antihepatotoxic effect, LD50 mouse i.p. / ED50 rat p.o., Table V): 11.7
- ED25 (liver damage by CCl4): 3 mg/kg
- ED50 (liver damage by CCl4; [11]): 12 mg/kg

Structure (SMILES): O=C(O)CCCCCN(C(=O)c1ccc(Cl)cc1Cl)c1ccccc1-c1ccccc1 [Serial No. 29, 6-[2,4-dichloro-N-(biphenyl-2-yl)benzamido]caproic acid]
- selectivity ratio [1, 12]: ~147
- ED50 (pancreatic secretion; [13]): 1.7 mg/kg
- Glucose formation, % change [4, 9]: -93%
- ED50 inhibition of formation of glucose from lactate and pyruvate ([4]; Table VIII): 23 µg/mL
- LD50 at 336 h ([2]; mouse i.p., Table VII): ~250 mg/kg

Structure (SMILES): COc1ccc(Cl)cc1C(=O)N(CCCC(=O)O)c1ccccc1-c1ccccc1 [Serial No. 33, 4-[2-methoxy-5-chloro-N-(biphenyl-2-yl)benzamido]butyric acid]
- selectivity ratio [1, 12]: 85
- ED50 (pancreatic secretion; [13]): 2 mg/kg
- LD50 at 336 h ([2]; mouse i.p., Table VII): 170 mg/kg

Structure (SMILES): CC(C)C(=O)N(CCCCCC(=O)O)c1ccccc1-c1ccccc1 [Serial No. 34, 6-[N-(biphenyl-2-yl)isobutyramido]caproic acid]
- LD50 at 336 h ([2]; mouse i.p., Table V): 260 mg/kg
- selectivity ratio [3, 10]: 8.7
- ED25 (liver damage by CCl4): < 30 mg/kg

Structure (SMILES): O=C(O)CCCN(C(=O)c1ccc(Cl)cc1)c1ccc(C2CCCCC2)cc1 [Serial No. 37, 4-[p-chloro-N-(1',2',3',4',5',6'-hexahydrobiphenyl-4-yl)benzamido]butyric acid]
- selectivity ratio [1, 12]: ~100
- ED50 (pancreatic secretion; [13]): 1.5 mg/kg
- LD50 at 336 h ([2]; mouse i.p., Table V): ~150 mg/kg
- selectivity ratio [3, 10]: ≥ 15
- ED25 (liver damage by CCl4): ≤ 10 mg/kg

Structure (SMILES): CC(=O)N(CCCC(=O)O)c1cccc2ccccc12 [Serial No. 39, 4-[N-(α-naphthyl)acetamido]butyric acid]
- selectivity ratio [1, 14]: ~500
- ED50 (pancreatic secretion; [15]): ~1.5 mg/kg
- LD50 at 336 h ([2]; mouse i.p., Table X): 750 mg/kg
- selectivity ratio [3, 16]: > 75
- selectivity ratio [3, 17]: 15
- ED25 (liver damage by CCl4): < 10 mg/kg
- ED50 (liver damage by CCl4; [11]): 50 mg/kg

Structure (SMILES): O=C(O)CCCN(C(=O)c1ccc(Cl)cc1Cl)c1cccc2ccccc12 [Serial No. 41, 4-{2,4-dichloro-[N-(α-naphthyl)]benzamido}butyric acid]
- selectivity ratio [1, 14]: 32
- ED50 (pancreatic secretion; [15]): 7.5 mg/kg
- LD50 at 336 h ([2]; mouse i.p., Table X): 240 mg/kg
- selectivity ratio [3, 16]: 24
- selectivity ratio [3, 17]: 9.2
- ED25 (liver damage by CCl4): 10 mg/kg
- ED50 (liver damage by CCl4; [11]): 26 mg/kg

Structure (SMILES): COc1ccc(Cl)cc1C(=O)N(CCCC(=O)O)c1cccc2ccccc12 [Serial No. 44, 4-{5-chloro-2-methoxy-[N-(α-naphthyl)]benzamido}butyric acid]
- selectivity ratio [1, 14]: > 270
- ED50 (pancreatic secretion; [15]): < 1 mg/kg
- LD50 at 336 h ([2]; mouse i.p., Table X): 270 mg/kg
- selectivity ratio [3, 16]: ~9
- ED25 (liver damage by CCl4): ~30 mg/kg

Structure (SMILES): COc1ccc2cccc(N(CCCC(=O)O)C(=O)c3ccc(Cl)cc3)c2c1 [Serial No. 46, 4-{p-chloro-[N-(7-methoxy-1-naphthyl)]benzamido}butyric acid]
- selectivity ratio [1, 14]: 400
- ED50 (pancreatic secretion; [15]): 0.3 mg/kg
- LD50 at 336 h ([2]; mouse i.p., Table X): 120 mg/kg
- selectivity ratio [3, 16]: 17.1
- selectivity ratio [3, 17]: 7.5
- ED25 (liver damage by CCl4): 7 mg/kg
- ED50 (liver damage by CCl4; [11]): 16 mg/kg

Structure (SMILES): O=C(O)CCCCN(C(=O)c1ccc(Cl)cc1)c1cccc2ccccc12 [Serial No. 47, 5-{p-chloro-[N-(α-naphthyl)]benzamido}valeric acid]
- selectivity ratio [1, 14]: 85
- ED50 (pancreatic secretion; [15]): 2 mg/kg
- Glucose formation, % change ([4]; 0.2 mmol/liter in the perfusate, Table XIII): -86%
- ED50 inhibition of formation of glucose from lactate and pyruvate ([4]; Table XIII): 31 µg/mL
- LD50 at 336 h ([2]; mouse i.p., Table X): 170 mg/kg

Structure (SMILES): O=C(O)CCCN(C(=O)c1cccc(C(F)(F)F)c1)c1cccc2ccccc12 [compound 42]
- selectivity ratio [1, 14]: > 160
- ED50 (pancreatic secretion; [15]): < 1 mg/kg
- LD50 at 336 h ([2]; mouse i.p., Table X): 160 mg/kg

Structure (SMILES): O=C(O)CCCCCN(C(=O)c1ccc(Cl)cc1)c1cccc2ccccc12 [compound 48]
- selectivity ratio [1, 14]: ~160
- ED50 (pancreatic secretion; [15]): ~1 mg/kg
- LD50 at 336 h ([2]; mouse i.p., Table X): 160 mg/kg
- selectivity ratio [3, 16]: ~22.9
- ED25 (liver damage by CCl4): ~7 mg/kg

Structure (SMILES): CC(=O)N(CCCC(=O)O)C1CCCc2ccccc21 (centres unmarked) [compound 49]
- selectivity ratio [1, 14]: ≥ 40
- ED50 (pancreatic secretion; [15]): ~5 mg/kg
- LD50 at 336 h ([2]; mouse i.p., Table X): > 200 mg/kg
- selectivity ratio [3, 16]: > 20
- ED25 (liver damage by CCl4): < 10 mg/kg
